How the values were obtained:
Format in all cases: in vivo
[1] = test system: Welsh onion plant (Sakaiyakko); test: reducing leaf blight and improving quality, spray on Welsh onion plant; settings: for Leaf blight: leaf blight index, 50 plants, sprayed three times; for Phytotoxicity: scale of 1 to 5
Procedure: The effects of a quality improver in reducing leaf blight and improving fruit quality were evaluated using a Welsh onion plant (Sakaiyakko).
That is, the quality improver of Example 1 was sprayed on the Welsh onion at the polyvalent metal concentrations shown in Table 7 over three times from early June (one-week interval) using a backpack sprayer.
The evaluation was carried out on 50 randomly selected plants. The leaf blight was determined by evaluating the degree of leaf blight based on a 4-point scale (none=0, mild=1, moderate=2, severe=3), and expressed by the following equation: leaf blight index={(1×the number of plants with mild leaf blight)+(2×the number of plants with moderate leaf blight)+(3×the number of plants with severe leaf blight)}×100/(3× the number of plants examined). In addition, plant length, plant weight, the number of leaves, and yield were evaluated. The dirt on a leaf surface was evaluated by a ratio of the surface area soiled whitish to the total surface area of the leaf on a scale of 1 to 5 (not soiled=1, slightly soiled=2, a little soiled=3, moderately soiled=4, much soiled=5). The phytotoxicity was evaluated on a scale of 1 to 5 (normal=1, slightly damaged=2, a little damaged=3, moderately damaged=4, much damaged=5).
The examinations were carried out in the same manner as in Application Example 43 except that the quality improvers of Examples 2 to 21 and Comparative Examples 1 to 4 were used instead of the quality improver of Example 1.

grape tree (Pione) = test: reducing fruit-cracking and improving fruit quality, spray on grape tree
Procedure: The effects of a quality improver in reducing fruit-cracking and improving fruit quality were evaluated using a grape tree (Pione). That is, the quality improver of Example 1 was sprayed on the grape tree at the polyvalent metal concentrations shown in Table 8 over four times from early July (two-week interval). Each treatment was conducted on each branch by spraying with a backpack sprayer.
The evaluation was carried out on 20 randomly selected clusters. The number of fruit-cracking was expressed as the number of grains with cracking in a cluster examined. The degree of fruit coloring was expressed using a color chart based on a scale of 0 (poorly colored) to 12 (fully colored). The sugar content was determined using a sugar refractometer. The acidity was expressed as titratable tartaric acid content. The dirt on a fruit surface was evaluated by a ratio of the surface area soiled whitish to the total surface area of the fruit on a scale of 1 to 5 (not soiled=1, slightly soiled=2, a little soiled=3, moderately soiled=4, much soiled=5). The phytotoxicity was evaluated on a scale of 1 to 5 (normal=1, slightly damaged=2, a little damaged=3, moderately damaged=4, much damaged=5).
(§1) The examinations were carried out in the same manner as in Application Example 64 except that the quality improvers of Examples 2 to 4, 6 to 7, 12, 14, 17 to 18, and Comparative Examples 1 to 4 were used instead of the quality improver of Example 1.

[2] = test system: cherry fruit tree (Satonishiki); test: reducing fruit-cracking and improving fruit quality, spray on cherry fruit tree
Procedure: The effects of a quality improver in reducing fruit-cracking and improving fruit quality were evaluated using a cherry fruit tree (Satonishiki). That is, the quality improver of Example 1 was sprayed on the cherry fruit tree at the polyvalent metal concentrations shown in Table 10 over three times from early May (two-week interval). Each treatment was conducted on each branch by spraying with a backpack sprayer.
The evaluation was carried out on 50 randomly selected fruits. The incidence of fruit-cracking was expressed as a ratio of the number of fruits with cracking to the total number of fruits examined. The degree of fruit coloring was expressed as the colored area of a fruit. The sugar content was determined using a sugar refractometer. The acidity was expressed as titratable malic acid content. The dirt on a fruit surface was evaluated by a ratio of the surface area soiled whitish to the total surface area of the fruit on a scale of 1 to 5 (not soiled=1, slightly soiled=2, a little soiled=3, moderately soiled=4, much soiled=5). The phytotoxicity was evaluated on a scale of 1 to 5 (normal=1, slightly damaged=2, a little damaged=3, moderately damaged=4, much damaged=5).
as §1

pear tree (Housui) = test: reducing water core and improving fruit quality, spray on pear tree
Procedure: The effects of a quality improver in reducing water core and improving fruit quality were evaluated using a pear tree (Housui).
That is, the quality improver of Example 1 was sprayed on the pear tree at the polyvalent metal concentrations shown in Table 14 over four times from late April (ten-day interval) and two times from middle July (ten-day interval). Each treatment was conducted on each branch by spraying with a backpack sprayer.
The evaluation was carried out on 30 randomly selected fruits. The degree of water core was evaluated by examining three cross sections of the stalk cavity part, the equatorial part, and the calyx end part of the fruit based on a 4-point scale (none=0, mild=1, moderate=2, severe=3). The result of the evaluation was expressed by the following equation: water core index={(1×the number of fruits with mild water core)+(2×the number of fruits with moderate water core)+(3×the number of fruits with severe water core)}/(the number of fruits examined). The fruit with a water core index of 2 or 3 was considered as a seriously damaged fruit. The ground color of fruit skin was determined using a color chart for Japanese pear based on a scale of 1 (immature) to 6 (overmature). The sugar content was determined using a sugar refractometer. The dirt on a fruit surface was evaluated by a ratio of the surface area soiled whitish to the total surface area of the fruit on a scale of 1 to 5 (not soiled=1, slightly soiled=2, a little soiled=3, moderately soiled=4, much soiled=5). The phytotoxicity was evaluated on a scale of 1 to 5 (normal=1, slightly damaged=2, a little damaged=3, moderately damaged=4, much damaged=5).
The examinations were carried out in the same manner as in Application Example 94 except that the quality improvers of Examples 2 to 4, 6 to 7, 12, 14, 17 to 18, and Comparative Examples 1 to 4 were used instead of the quality improver of Example 1.

| SMILES | Leaf blight ([1]; polyvalent metal 0.030 wt. %) | Leaf blight ([1]; polyvalent metal 0.075 wt. %) | Number of leaves ([1]; polyvalent metal 0.030 wt. %) | Plant length ([1]; polyvalent metal 0.030 wt. %) | Plant weight ([1]; polyvalent metal 0.030 wt. %) | Number of leaves ([1]; polyvalent metal 0.075 wt. %) | Plant length ([1]; polyvalent metal 0.075 wt. %) | Plant weight ([1]; polyvalent metal 0.075 wt. %) | Phytotoxicity ([1]; polyvalent metal 0.030 wt. %) | Phytotoxicity ([1]; polyvalent metal 0.075 wt. %) | Acidity (grape tree (Pione); polyvalent metal 0.030 wt. %) | Degree of fruit coloring (grape tree (Pione); polyvalent metal 0.030 wt. %) | Number of fruit-cracking (grape tree (Pione); polyvalent metal 0.030 wt. %) | Phytotoxicity (grape tree (Pione); polyvalent metal 0.030 wt. %) | Sugar content (grape tree (Pione); polyvalent metal 0.030 wt. %) | Acidity (grape tree (Pione); polyvalent metal 0.075 wt. %) | Degree of fruit coloring (grape tree (Pione); polyvalent metal 0.075 wt. %) | Number of fruit-cracking (grape tree (Pione); polyvalent metal 0.075 wt. %) | Phytotoxicity (grape tree (Pione); polyvalent metal 0.075 wt. %) | Sugar content (grape tree (Pione); polyvalent metal 0.075 wt. %) | also measured |
| --- | --- | --- | --- | --- | --- | --- | --- | --- | --- | --- | --- | --- | --- | --- | --- | --- | --- | --- | --- | --- | --- |
| [Ca+2].[Cl-].[Cl-] [calcium chloride] | 42.0 | 40.0 | 30.3 | 59.2 | 185 | 31.3 | 60.9 | 189 | 4 | 4 | 0.63 | 9.2 | 4.4 | 4 | 18.4 | 0.66 | 9.0 | 4.5 | 4 | 18.6 | Acidity ([2]; polyvalent metal 0.030 wt. %): 0.64; Degree of fruit coloring ([2]; polyvalent metal 0.030 wt. %): 79.2; Incidence of fruit-cracking ([2]; polyvalent metal 0.030 wt. %): 18.2%; Phytotoxicity ([2]; polyvalent metal 0.030 wt. %): 4; Sugar content ([2]; polyvalent metal 0.030 wt. %): 19.4; Acidity ([2]; polyvalent metal 0.075 wt. %): 0.66; Degree of fruit coloring ([2]; polyvalent metal 0.075 wt. %): 78.4; Incidence of fruit-cracking ([2]; polyvalent metal 0.075 wt. %): 18.5%; Phytotoxicity ([2]; polyvalent metal 0.075 wt. %): 4; Sugar content ([2]; polyvalent metal 0.075 wt. %): 19.2; Ground color (pear tree (Housui); polyvalent metal 0.030 wt. %): 3.7; Phytotoxicity (pear tree (Housui); polyvalent metal 0.030 wt. %): 4; Seriously damaged fruit (pear tree (Housui); polyvalent metal 0.030 wt. %): 30.0%; Sugar content (pear tree (Housui); polyvalent metal 0.030 wt. %): 12.8; Water core index (pear tree (Housui); polyvalent metal 0.030 wt. %): 0.97; Ground color (pear tree (Housui); polyvalent metal 0.075 wt. %): 3.5; Phytotoxicity (pear tree (Housui); polyvalent metal 0.075 wt. %): 4; Seriously damaged fruit (pear tree (Housui); polyvalent metal 0.075 wt. %): 26.7%; Sugar content (pear tree (Housui); polyvalent metal 0.075 wt. %): 12.6; Water core index (pear tree (Housui); polyvalent metal 0.075 wt. %): 0.90 |
| O=C[O-].O=C[O-].[Ca+2] [calcium formate] | 30.0 | 28.0 | 34.2 | 60.8 | 185 | 35.6 | 62.8 | 191 | 3 | 3 | 0.54 | 9.7 | 3.9 | 3 | 18.9 | 0.53 | 9.7 | 3.6 | 3 | 19.3 | Acidity ([2]; polyvalent metal 0.030 wt. %): 0.63; Degree of fruit coloring ([2]; polyvalent metal 0.030 wt. %): 80.5; Incidence of fruit-cracking ([2]; polyvalent metal 0.030 wt. %): 16.1%; Phytotoxicity ([2]; polyvalent metal 0.030 wt. %): 3; Sugar content ([2]; polyvalent metal 0.030 wt. %): 19.9; Acidity ([2]; polyvalent metal 0.075 wt. %): 0.62; Degree of fruit coloring ([2]; polyvalent metal 0.075 wt. %): 80.3; Incidence of fruit-cracking ([2]; polyvalent metal 0.075 wt. %): 15.6%; Phytotoxicity ([2]; polyvalent metal 0.075 wt. %): 3; Sugar content ([2]; polyvalent metal 0.075 wt. %): 20.2; Ground color (pear tree (Housui); polyvalent metal 0.030 wt. %): 3.6; Phytotoxicity (pear tree (Housui); polyvalent metal 0.030 wt. %): 3; Seriously damaged fruit (pear tree (Housui); polyvalent metal 0.030 wt. %): 23.3%; Sugar content (pear tree (Housui); polyvalent metal 0.030 wt. %): 13.0; Water core index (pear tree (Housui); polyvalent metal 0.030 wt. %): 0.80; Ground color (pear tree (Housui); polyvalent metal 0.075 wt. %): 3.8; Phytotoxicity (pear tree (Housui); polyvalent metal 0.075 wt. %): 3; Seriously damaged fruit (pear tree (Housui); polyvalent metal 0.075 wt. %): 16.7%; Sugar content (pear tree (Housui); polyvalent metal 0.075 wt. %): 13.2; Water core index (pear tree (Housui); polyvalent metal 0.075 wt. %): 0.77 |

From patent publication US8404619B2, “Particulate plant treatment composition” (Maruo Calcium Company Limited, priority 2005, dated 2013)
